Laboratory results taken from PubChem BioAssay (NCI).
Several values for one entry are separate records, joined by “and”; a condition that tells them apart may be missing. Equal values may be shown once.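 Five concentrations, 48 hours, 96-well plates. The concentration for 50% growth inhibition is given as GI50. TGI is the concentration that stops growth completely.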

What was measured:
Assay in all cases: NCI anticancer screen, dose series, 48 h
BT-549 breast = system: BT-549 breast
CCRF-CEM leukemia = system: CCRF-CEM leukemia
DU-145 prostate = system: DU-145 prostate
EKVX NSCLC = system: EKVX NSCLC
HCT-116 colon = system: HCT-116 colon
NCI-H226 lung = system: NCI-H226 lung
OVCAR-5 ovarian = system: OVCAR-5 ovarian
PC-3 prostate = system: PC-3 prostate
SK-MEL-5 melanoma = system: SK-MEL-5 melanoma
SNB-75 CNS = system: SNB-75 CNS

Structure (SMILES)	TGI (BT-549 breast) [µM]	TGI (CCRF-CEM leukemia)	TGI (DU-145 prostate) [µM]	TGI (EKVX NSCLC)	TGI (HCT-116 colon)	TGI (NCI-H226 lung)	TGI (OVCAR-5 ovarian)	TGI (PC-3 prostate) [µM]	TGI (SK-MEL-5 melanoma)	TGI (SNB-75 CNS)	GI50 (BT-549 breast)	GI50 (CCRF-CEM leukemia) [µM]	GI50 (DU-145 prostate)	GI50 (EKVX NSCLC)	GI50 (HCT-116 colon)	GI50 (NCI-H226 lung)	GI50 (OVCAR-5 ovarian)	GI50 (PC-3 prostate) [µM]	GI50 (SK-MEL-5 melanoma)	GI50 (SNB-75 CNS)
OCC12C3C4C5C3C1C5C42 (stereo not drawn)	> 100	> 100 µM	> 100	> 100 µM	> 100 µM	> 100 µM	> 100 µM	> 100	> 100 µM	> 100 µM	–	–	–	–	–	–	–	–	–	–
CCOc1ccccc1C(=O)N1CCN(c2cc(Cl)cc(Cl)c2)CC1	4.34	33.5 µM	14	17.3 µM	4.02 µM	6.55 µM	16.2 µM	12.6	0.177 µM	14.3 µM	0.0429 µM	0.0357	0.0468 µM	0.0587 µM	0.0325 µM	0.839 µM	0.0552 µM	0.0346	0.0345 µM	0.474 µM
O=S(=O)(c1ccc(Cl)cc1)C(Cl)(Cl)Cl	7.48	> 32.6 µM	10	> 21.4 µM	11.3 µM	21.9 µM	69.6 µM	> 62.5	12.1 µM	20.3 µM	1.4 µM	1.62	2.09 µM	4.68 µM	2.43 µM	4.86 µM	12.7 µM	4.73	3.02 µM	2.34 µM
O=C1OCC2=C1C(c1ccccc1)c1cc3c(cc1N2)OCO3 (stereo not drawn)	4.97	> 100 µM	> 100	> 100 µM	> 100 µM	0.0742 µM	> 100 µM	> 100	0.234 µM	1.16 µM	0.0441 µM	0.039	0.0443 µM	2.29 µM	0.0352 µM	0.0245 µM	0.0829 µM	0.0404	0.0336 µM	0.0201 µM
COc1cc2c(cc1C1COc3cc4occc4cc3C1=O)OCO2 (stereo not drawn)	> 100	> 100 µM	> 100	> 100 µM	> 100 µM	> 100 µM	> 100 µM	> 100	> 100 µM	> 100 µM	–	–	–	–	–	–	–	–	–	–
O=C(OCc1ccc2ccccc2n1)c1cn(C2CC2)c2cc(N3CCN(Cc4ccc5ccccc5n4)CC3)c(F)cc2c1=O	68	> 100 µM	> 100	> 100 µM	> 95.3 µM	91.6 µM	> 100 µM	> 80.2	62.2 µM	> 66.6 µM	23.1 µM	> 100	6.09 µM	29.6 µM	> 53.2 µM	22.1 µM	> 81.5 µM	> 44.6	20.1 µM	32 µM
Nc1nc(OCc2ccccc2)c2[nH]cnc2n1	115	319 µM and 274 µM	266	307 µM and 274 µM	209 µM and 137 µM	119 µM and 82 µM	241 µM and 240 µM	628	193 µM and 149 µM	67.3 µM and 86.1 µM	24.3 µM and 22.1 µM	39.5	33.6 µM and 30.1 µM	64.1 µM and 32.3 µM	34.7 µM and 34.5 µM	36.8 µM and 16.3 µM	52.7 µM and 42.6 µM	53.7	34.5 µM and 35.4 µM	13.9 µM
CC(=O)OC12C=C(C)C(C(C)C1)C1C(=O)N(CCN3CCOCC3)C(=O)C12 (stereo not drawn)	> 100	> 100 µM	> 100	> 100 µM	> 100 µM	> 100 µM	> 100 µM	> 100	> 100 µM	> 100 µM	> 100 µM	> 100	> 100 µM	> 100 µM	> 100 µM	> 100 µM	> 100 µM	> 100	> 100 µM	> 100 µM
CN1CCN(C(=O)c2cc(-c3ccc4ncnc(N5CCc6cc(F)c(Cl)cc65)c4c3)cnc2N)CC1	1.57	4.92 µM	11.3	1.55 µM	2.89 µM	2.76 µM	13.8 µM	3.78	0.476 µM	0.704 µM	0.181 µM	0.266	0.214 µM	0.232 µM	0.237 µM	0.309 µM	0.29 µM	0.176	0.209 µM	0.0512 µM
CC(=O)Nc1ccc(C(O)/C(=N/N)c2nc3ccc(Cl)cc3[nH]c2=O)cc1 (stereo not drawn)	> 100	> 100 µM	> 100	> 100 µM	> 100 µM	> 100 µM	> 100 µM	> 100	> 100 µM	> 100 µM	–	–	–	–	–	–	–	–	–	–
CC(C)NCCCn1c(Sc2cc3c(cc2I)OCO3)nc2c(N)ncnc21	> 100	> 100 µM	> 100	> 100 µM	> 100 µM	79.4 µM	> 100 µM	> 100	18 µM	> 100 µM	1.51 µM	0.425	0.0473 µM	2.53 µM	0.0628 µM	0.767 µM	3.02 µM	0.133	0.462 µM	0.727 µM
COC1C=COC2(C)Oc3c(C)c(O)c4c(c3C2=O)/C(=N/C2CCC(O)OC2C)C=C(NC(=O)/C(C)=C\C(=O)C2CC2C(O)C(C)C(O)C(C)C(OC(C)=O)C1C)C4=O (stereo not drawn)	6.28	10.9 µM	7.13	8.75 µM	3.56 µM	8.06 µM	8.45 µM	6.56	4.97 µM	12.4 µM	–	–	–	–	–	–	–	–	–	–
COc1ccc(-c2cc(-c3ccc(C)cc3)nc3nc(=S)[nH]c(N)c23)cc1	60.4	64.8 µM	75.5	96 µM	26.6 µM	41.7 µM	96.9 µM	> 100	29.6 µM	> 100 µM	27.1 µM	18.8	26.3 µM	25.8 µM	11.3 µM	17.5 µM	39.3 µM	37.7	14.1 µM	66.2 µM
C[C@@H]1CN(Cc2ccc(F)cc2)[C@@H](C)CN1C(=O)c1cc2c(C(=O)C(=O)N(C)C)cn(C)c2cc1Cl	41.8	50.2 µM	53.1	89.8 µM	> 71.9 µM	31.1 µM	60.4 µM	> 77.7	26 µM	27.9 µM	15.2 µM	18.5	18.8 µM	20.7 µM	21.6 µM	12.2 µM	21.8 µM	18.9	13.1 µM	8.35 µM
COc1cc2c(cc1OCCCn1c(-c3ccccn3)nc3ccccc31)N=C[C@@H]1CCCN1C2=O	4.87	> 25 µM	6.72	40.2 µM	7.56 µM	6.9 µM	9.34 µM	> 30.6	2.96 µM	5.73 µM	1.6 µM	15.7	2.72 µM	5 µM	1.35 µM	0.8 µM	3.41 µM	1.44	1.57 µM	1.72 µM
O=C(/C=C/c1ccccc1)CCN1CCOCC1	17.9	12.1 µM	40.4	30.6 µM	28 µM	51.6 µM	27.1 µM	31.5	33.5 µM	51.6 µM	–	–	–	–	–	–	–	–	–	–
O=c1[nH]c(=O)n(C2CC(O)C(COP(=O)(OCc3ccc([N+](=O)[O-])o3)N(CCCCCl)CC(O)CO)O2)cc1F (stereo not drawn)	> 100	> 100 µM	> 34.8	> 100 µM	> 100 µM	> 55.2 µM	> 100 µM	> 100	4.49 µM	> 100 µM	0.663 µM	0.0102	0.176 µM	> 28.2 µM	0.999 µM	0.157 µM	> 100 µM	0.154	0.386 µM	2.82 µM
O=C(O)c1ccc(C(=O)c2ccccc2)c(C(=O)O)c1	> 100	> 100 µM	> 100	> 100 µM	> 100 µM	> 100 µM	> 100 µM	> 100	> 100 µM	> 100 µM	–	–	–	–	–	–	–	–	–	–
CN[C@@H](C)C(=O)N[C@H](C(=O)N1CCC[C@H]1C(=O)Nc1sc(-c2ncco2)nc1-c1ccccc1)C1CCCCC1	33.6	> 100 µM	> 100	> 100 µM	> 85.4 µM	> 100 µM	> 64.6 µM	> 100	24 µM	65.4 µM	0.0598 µM	32.5	> 95.8 µM	42.9 µM	25.6 µM	> 100 µM	38 µM	42	9.93 µM	12.2 µM
OCC1OC(n2cnc3c(N/N=C\c4ccccn4)ncnc32)C(O)C1O (stereo not drawn)	23	> 100 µM	10.1	97 µM	10.8 µM	> 100 µM	> 100 µM	> 33.6	2.29 µM	12.9 µM	0.256 µM	0.0338	0.0389 µM	0.49 µM	0.11 µM	0.525 µM	0.467 µM	0.361	0.398 µM	0.613 µM
O=C1NC(=O)C(N2C(=O)c3ccccc3C2=O)CC1O (stereo not drawn)	> 100	> 100 µM	> 100	> 100 µM	> 100 µM	> 100 µM	> 100 µM	> 100	–	> 100 µM	> 100 µM	> 100	> 100 µM	> 100 µM	> 100 µM	> 100 µM	> 100 µM	> 100	–	> 100 µM
NC(=O)c1csc(C2OC(CO)C(O)C2O)n1 (stereo not drawn)	> 10000	–	> 10000	5940 µM	6870 µM	> 9450 µM	> 9720 µM	2560	> 31.6 µM and 8280 µM	7140 µM	> 60.7 µM	15.6	–	–	–	99.2 µM	–	29.5	> 31.6 µM	26.5 µM and 40.8 µM
O=C1OCC2=C1C(c1ccc(Cl)c(Cl)c1)c1cc3c(cc1N2CCO)OCCO3 (stereo not drawn)	15.5	16.7 µM	6.53	> 38.6 µM	8.78 µM	7.71 µM	> 33.2 µM	8.66	6.37 µM	9.2 µM	0.583 µM	0.184	0.211 µM	1.23 µM	0.213 µM	0.29 µM	0.736 µM	0.189	0.148 µM	0.128 µM
COc1cc(N2C(=O)[C@H](O)C2c2ccc(SC)cc2)cc(OC)c1OC (stereo partly drawn)	0.0835	> 100 µM	> 100	> 100 µM	> 100 µM	> 100 µM	> 100 µM	> 100	0.0304 µM	> 100 µM	< 0.01 µM	< 0.01	0.0238 µM	< 0.01 µM	< 0.01 µM	< 0.01 µM	0.0237 µM	< 0.01	< 0.01 µM	< 0.01 µM
CC(=O)/C=C/c1cn(C(=O)OC(C)(C)C)c2ccc(Br)cc12	26.4	> 100 µM	45.1	84.3 µM	21.6 µM	28.7 µM	53.9 µM	> 79.2	32.9 µM	39.3 µM	5.87 µM	1.07	14.1 µM	24.5 µM	8.39 µM	11.7 µM	25.6 µM	18.2	13.6 µM	14.4 µM
O=S(=O)(Nc1cc(Sc2cccc3cccnc23)c(O)c2ccccc12)c1ccc(F)cc1	13.7	11.9 µM	3.81	6.5 µM	2.13 µM	19 µM	10.6 µM	12.1	3.16 µM	15.2 µM	3.04 µM	0.544	1.27 µM	1.41 µM	0.604 µM	3.24 µM	2.63 µM	0.74	1.66 µM	3.68 µM
c1cnn2ncc(-c3ccnc(NCCCN4CCOCC4)n3)c2c1	> 25	> 25 µM	> 25	> 25 µM	> 25 µM	> 16.8 µM	24.9 µM	> 25	9.7 µM	12.7 µM	7.5 µM	7.73	7.72 µM	6.67 µM	7.25 µM	3.79 µM	7.28 µM	8.71	3.63 µM	5.52 µM
